These results are taken from the NIST ThermoML archive (doi:10.1021/acs.jced.8b00372).

For the data set the following is noted: 313.15 K, Ring tensiometer.

± gives the expanded uncertainty stated by the source.

As a reminder, the surface tension liquid-gas is the force per length acting along the surface.

Turning to `O` [water], the surface tension liquid-gas stood at 67.2 ± 2.8 mN/m.
